From PubChem BioAssay (NCI)
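Tested at 5 concentrations; 48 h exposure; 96-well plates; endpoints linearly interpolated, else capped at highest concentration. At the GI50, growth is halved. TGI: concentration producing complete growth inhibition.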

Experiments:
Test in all cases: NCI tumour cell line growth inhibition, 48 h
A498 renal = system: A498 renal
ACHN renal = system: ACHN renal
BT-549 breast = system: BT-549 breast
CAKI-1 renal = system: CAKI-1 renal
CCRF-CEM leukemia = system: CCRF-CEM leukemia
COLO 205 colon = system: COLO 205 colon
DU-145 prostate = system: DU-145 prostate
EKVX NSCLC = system: EKVX NSCLC
HCC-2998 colon = system: HCC-2998 colon
HCT-116 colon = system: HCT-116 colon
HCT-15 colon = system: HCT-15 colon
HL-60(TB) leukemia = system: HL-60(TB) leukemia
HOP-62 NSCLC = system: HOP-62 NSCLC
HOP-92 NSCLC = system: HOP-92 NSCLC
HS 578T breast = system: HS 578T breast
HT29 colon = system: HT29 colon
IGROV1 ovarian = system: IGROV1 ovarian
K-562 leukemia = system: K-562 leukemia
KM12 colon = system: KM12 colon
LOX IMVI melanoma = system: LOX IMVI melanoma
M14 melanoma = system: M14 melanoma
MALME-3M melanoma = system: MALME-3M melanoma
MCF7 breast = system: MCF7 breast
MDA-MB-435 = system: MDA-MB-435
MOLT-4 leukemia = system: MOLT-4 leukemia
NCI-H226 lung = system: NCI-H226 lung
NCI-H23 lung = system: NCI-H23 lung
NCI-H460 lung = system: NCI-H460 lung
NCI/ADR-RES ovarian = system: NCI/ADR-RES ovarian
OVCAR-3 ovarian = system: OVCAR-3 ovarian
OVCAR-4 ovarian = system: OVCAR-4 ovarian
OVCAR-5 ovarian = system: OVCAR-5 ovarian
OVCAR-8 ovarian = system: OVCAR-8 ovarian
PC-3 prostate = system: PC-3 prostate
RPMI-8226 leukemia = system: RPMI-8226 leukemia
RXF 393 renal = system: RXF 393 renal
SF-268 CNS = system: SF-268 CNS
SF-295 CNS = system: SF-295 CNS
SK-MEL-2 melanoma = system: SK-MEL-2 melanoma
SK-MEL-28 melanoma = system: SK-MEL-28 melanoma
SK-MEL-5 melanoma = system: SK-MEL-5 melanoma
SK-OV-3 ovarian = system: SK-OV-3 ovarian
SN12C renal = system: SN12C renal
SNB-19 CNS = system: SNB-19 CNS
SNB-75 CNS = system: SNB-75 CNS
SR leukemia = system: SR leukemia
SW-620 colon = system: SW-620 colon
T-47D breast = system: T-47D breast
TK-10 renal = system: TK-10 renal
U251 CNS = system: U251 CNS
UACC-62 melanoma = system: UACC-62 melanoma
UO-31 renal = system: UO-31 renal
786-0 renal = system: 786-0 renal
A549 NSCLC = system: A549 NSCLC
MDA-MB-231 breast = system: MDA-MB-231 breast
NCI-H522 lung = system: NCI-H522 lung
UACC-257 melanoma = system: UACC-257 melanoma

SMILES: Cc1[nH]c(=O)[nH]c(=S)c1C(=O)Nc1cccc2cc3ccccc3cc12
- TGI (A498 renal): > 100 µM
- TGI (ACHN renal): > 100 µM
- TGI (BT-549 breast): > 100 µM
- TGI (CAKI-1 renal): > 100 µM
- TGI (CCRF-CEM leukemia): > 100 µM
- TGI (COLO 205 colon): > 100 µM
- TGI (DU-145 prostate): > 100 µM
- TGI (EKVX NSCLC): > 100 µM
- TGI (HCC-2998 colon): > 100 µM
- TGI (HCT-116 colon): > 100 µM
- TGI (HCT-15 colon): > 100 µM
- TGI (HL-60(TB) leukemia): > 100 µM
- TGI (HOP-62 NSCLC): > 100 µM
- TGI (HOP-92 NSCLC): > 100 µM
- TGI (HS 578T breast): > 100 µM
- TGI (HT29 colon): > 100 µM
- TGI (IGROV1 ovarian): > 100 µM
- TGI (K-562 leukemia): > 100 µM
- TGI (KM12 colon): > 100 µM
- TGI (LOX IMVI melanoma): > 100 µM
- TGI (M14 melanoma): > 100 µM
- TGI (MALME-3M melanoma): > 100 µM
- TGI (MCF7 breast): > 100 µM
- TGI (MDA-MB-435): > 100 µM
- TGI (MOLT-4 leukemia): > 100 µM
- TGI (NCI-H226 lung): > 100 µM
- TGI (NCI-H23 lung): > 100 µM
- TGI (NCI-H460 lung): > 100 µM
- TGI (NCI/ADR-RES ovarian): > 100 µM
- TGI (OVCAR-3 ovarian): > 100 µM
- TGI (OVCAR-4 ovarian): > 100 µM
- TGI (OVCAR-5 ovarian): > 100 µM
- TGI (OVCAR-8 ovarian): > 100 µM
- TGI (PC-3 prostate): > 100 µM
- TGI (RPMI-8226 leukemia): > 100 µM
- TGI (RXF 393 renal): > 100 µM
- TGI (SF-268 CNS): > 100 µM
- TGI (SF-295 CNS): > 100 µM
- TGI (SK-MEL-2 melanoma): > 100 µM
- TGI (SK-MEL-28 melanoma): > 100 µM
- TGI (SK-MEL-5 melanoma): > 100 µM
- TGI (SK-OV-3 ovarian): > 100 µM
- TGI (SN12C renal): > 100 µM
- TGI (SNB-19 CNS): > 100 µM
- TGI (SNB-75 CNS): > 100 µM
- TGI (SR leukemia): > 100 µM
- TGI (SW-620 colon): > 100 µM
- TGI (T-47D breast): > 100 µM
- TGI (TK-10 renal): > 100 µM
- TGI (U251 CNS): > 100 µM
- TGI (UACC-62 melanoma): > 100 µM
- TGI (UO-31 renal): > 100 µM

SMILES: CO[C@@]12[C@@H]3NC3CN1C1=C(C(=O)C(N)=C(C)C1=O)[C@@H]2COC(N)=O (some centres undefined)
- TGI (786-0 renal): 2.77 µM
- TGI (A498 renal): 1.21 µM
- TGI (A549 NSCLC): 3.62 µM
- TGI (ACHN renal): 1.63 µM
- GI50 (BT-549 breast): 1.3 µM
- TGI (BT-549 breast): 6.74 µM
- TGI (CAKI-1 renal): 2.08 µM
- GI50 (CCRF-CEM leukemia): 0.296 µM
- TGI (CCRF-CEM leukemia): > 63.5 µM
- GI50 (COLO 205 colon): 0.55 µM
- TGI (COLO 205 colon): 2.3 µM
- TGI (DU-145 prostate): 11.9 µM
- GI50 (EKVX NSCLC): 3.09 µM
- TGI (EKVX NSCLC): 20.2 µM
- GI50 (HCC-2998 colon): 0.46 µM
- TGI (HCC-2998 colon): 2.02 µM
- GI50 (HCT-116 colon): 0.53 µM
- TGI (HCT-116 colon): 3.26 µM
- GI50 (HCT-15 colon): 0.807 µM
- TGI (HCT-15 colon): > 100 µM
- GI50 (HL-60(TB) leukemia): 0.0862 µM
- TGI (HL-60(TB) leukemia): 7.43 µM
- TGI (HOP-62 NSCLC): 8.21 µM
- GI50 (HOP-92 NSCLC): 1.44 µM
- TGI (HOP-92 NSCLC): 5.73 µM
- GI50 (HS 578T breast): 6.32 µM
- TGI (HS 578T breast): > 100 µM
- TGI (HT29 colon): 5.24 µM
- GI50 (IGROV1 ovarian): 1.3 µM
- TGI (IGROV1 ovarian): 4 µM
- GI50 (K-562 leukemia): 0.965 µM
- TGI (K-562 leukemia): > 100 µM
- GI50 (KM12 colon): 1.22 µM
- TGI (KM12 colon): 7.22 µM
- TGI (LOX IMVI melanoma): 2.06 µM
- TGI (M14 melanoma): 1.82 µM
- GI50 (MALME-3M melanoma): 0.511 µM
- TGI (MALME-3M melanoma): 2.21 µM
- GI50 (MCF7 breast): 0.0809 µM
- TGI (MCF7 breast): 7.55 µM
- GI50 (MDA-MB-231 breast): 8.95 µM
- TGI (MDA-MB-231 breast): > 54.8 µM
- GI50 (MDA-MB-435): 1.13 µM
- TGI (MDA-MB-435): 8.3 µM
- GI50 (MOLT-4 leukemia): 0.278 µM
- GI50 (NCI-H226 lung): 0.504 µM
- TGI (NCI-H226 lung): 2.78 µM
- TGI (NCI-H23 lung): 1.46 µM
- TGI (NCI-H460 lung): 1.44 µM
- GI50 (NCI-H522 lung): 0.325 µM
- TGI (NCI-H522 lung): 2.13 µM
- GI50 (NCI/ADR-RES ovarian): 3.45 µM
- TGI (NCI/ADR-RES ovarian): > 90.5 µM
- GI50 (OVCAR-3 ovarian): 1.07 µM
- TGI (OVCAR-3 ovarian): 3.07 µM
- GI50 (OVCAR-4 ovarian): 2.22 µM
- TGI (OVCAR-4 ovarian): 33.9 µM
- GI50 (OVCAR-5 ovarian): 1.02 µM
- TGI (OVCAR-5 ovarian): 6.99 µM
- GI50 (PC-3 prostate): 2.02 µM
- TGI (PC-3 prostate): 37.1 µM
- GI50 (RPMI-8226 leukemia): 1.84 µM
- TGI (RPMI-8226 leukemia): 27.8 µM
- GI50 (RXF 393 renal): 1.27 µM
- TGI (RXF 393 renal): 4.16 µM
- GI50 (SK-MEL-2 melanoma): 1.91 µM
- TGI (SK-MEL-2 melanoma): 4.41 µM
- GI50 (SK-MEL-28 melanoma): 1.39 µM
- TGI (SK-MEL-28 melanoma): 5.47 µM
- TGI (SK-MEL-5 melanoma): 0.631 µM
- TGI (SK-OV-3 ovarian): 5.33 µM
- TGI (SN12C renal): > 40.9 µM
- GI50 (SR leukemia): 0.0325 µM
- TGI (SR leukemia): > 100 µM
- TGI (SW-620 colon): 7.01 µM
- GI50 (T-47D breast): 1.67 µM
- TGI (T-47D breast): 54.5 µM
- GI50 (TK-10 renal): 1.68 µM
- TGI (TK-10 renal): 5.85 µM
- TGI (UACC-257 melanoma): 2.14 µM
- GI50 (UO-31 renal): 0.465 µM
- TGI (UO-31 renal): 3.04 µM
